Assay results as given in patent publication US20230031406A1, “COMPOUNDS AND COMPOSITIONS FOR TREATING CONDITIONS ASSOCIATED WITH NLRP ACTIVITY” (Novartis AG, priority 2018, published 2023).
Like-named read-outs stand apart in the source and are kept apart here. Values belong to the compound of their own block, whether it stands above or below them.

Tested on: PMA-differentiated THP-1 cells
Assay: IL-1β production in PMA-differentiated THP-1 cells stimulated with gramicidin (hTHP-1 assay containing 2% fetal bovine serum; Procedures 1 and 2)
Format: cell-based, human
Settings: 2% fetal bovine serum
How it was run: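 PMA-primed (20 ng/ml, 16-18 h) THP-1 cells in RPMI with 2% FBS, 50,000 cells/well, were preincubated 1 h with compound (0.0017-100 μM final, 0.37% DMSO), then stimulated 2 h with 5 μM gramicidin. Supernatant IL-1β measured by HTRF.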

[1] = Homo sapiens, THP-1, Table B2, class symbols, read-out: hTHP-1 IC50
[2] = Homo sapiens, THP-1, Table B3, hTHP-1 assay, class symbols, read-out: IC50
[3] = Table B2, class symbols, read-out: hTHP-1 IC50
[4] = Table B3, hTHP-1 assay, class symbols, read-out: IC50
[5] = Homo sapiens, THP-1, Table B1, class symbols, read-out: Average IC50 of compounds in hTHP-1 assay: hTHP-1 IC50

SMILES: CCn1cc(F)c(S(N)(=O)=NC(=O)Nc2c3c(nc4c2CC[C@@H]4C)CCC3)n1 (stereo partly drawn) [Example 616, 1-Ethyl-4-fluoro-N′-(((S)-3-methyl-1,2,3,5,6,7-hexahydrodicyclopenta[b,e]pyridin-8-yl)carbamoyl)-1H-pyrazole-3-sulfonimidamide]
- IC50 [2]: 200 to 1000 nM

SMILES: Cc1nc(C)c(C)c(NC(=O)N=S(N)(=O)c2cnc(C(C)(C)O)s2)c1C (single isomer, unassigned) [Compound 133b, (S) or (R)-2-(2-hydroxypropan-2-yl)-N′-((2,3,5,6-tetramethylpyridin-4-yl)carbamoyl)thiazole-5-sulfonimidamide]
- IC50 (Table B1, numeric bounds, read-out: Average IC50 of compounds in hTHP-1 assay: hTHP-1 IC50): > 30000 nM

SMILES: Cc1c(C2(F)CC2)nc2c(c1NC(=O)N=[S@@](N)(=O)c1cnc(C(C)(C)O)s1)CCC2 [Example 579, (R)-N′-((2-(1-fluorocyclopropyl)-3-methyl-6,7-dihydro-5H-cyclopenta[b]pyridin-4-yl)carbamoyl)-2-(2-hydroxypropan-2-yl)thiazole-5-sulfonimidamide]
- IC50 [2]: 1000 to 5000 nM

SMILES: Cc1nc2c(c(NC(=O)N=S(N)(=O)c3nn(C(F)F)cc3F)c1-c1ccccc1)CCC2 (single isomer, unassigned) [Example 727, (R) or (S)-1-(difluoromethyl)-4-fluoro-N′-((2-methyl-3-phenyl-6,7-dihydro-5H-cyclopenta[b]pyridin-4-yl)carbamoyl)-1H-pyrazole-3-sulfonimidamide]
- IC50 [4]: 40 to 200 nM

SMILES: Cc1c(C(F)(F)F)nc2c(c1NC(=O)N=S(N)(=O)c1cnc(C(C)(C)O)s1)CCC2 (stereo not drawn) [Compound 661, 2-(2-Hydroxypropan-2-yl)-N′-((3-methyl-2-(trifluoromethyl)-6,7-dihydro-5H-cyclopenta[b]pyridin-4-yl)carbamoyl)thiazole-5-sulfonimidamide]
- IC50 [1]: 1000 to 5000 nM

SMILES: CC(C)(O)c1cnc(S(N)(=O)=NC(=O)Nc2c3c(nc4c2CCC42CC2)CCC3)s1 (stereo not drawn) [Compound 683, 5-(2-Hydroxypropan-2-yl)-N′-((1′,5′,6′,7′-tetrahydro-2′H-spiro[cyclopropane-1,3′-dicyclopenta[b,e]pyridin]-8′-yl)carbamoyl)thiazole-2-sulfonimidamide]
- IC50 [1]: 1000 to 5000 nM

SMILES: Cc1c(C(F)(F)F)nc2c(c1NC(=O)N=S(N)(=O)c1ccn(C(C)C)n1)CCC2 (stereo not drawn) [Compound 628, 1-Isopropyl-N′-((3-methyl-2-(trifluoromethyl)-6,7-dihydro-5H-cyclopenta[b]pyridin-4-yl)carbamoyl)-1H-pyrazole-3-sulfonimidamide]
- IC50 [1]: 200 to 1000 nM

SMILES: NS(=O)(=NC(=O)Nc1c2c(nc(C(F)(F)F)c1-c1ccccc1)CCC2)c1nn(C(F)F)cc1F (single isomer, unassigned) [Example 765, (R) or (S)-1-(difluoromethyl)-4-fluoro-N′-((3-phenyl-2-(trifluoromethyl)-6,7-dihydro-5H-cyclopenta [b]pyridin-4-yl)carbamoyl)-1H-pyrazole-3-sulfonimidamide]
- IC50 (Table B4, class symbols, read-out: hTHP-1 IC50): 8 to 40 nM

SMILES: CC1CCc2c1nc1c(c2NC(=O)N=S(N)(=O)c2cc(C(C)(C)O)cs2)CCC1C (stereo not drawn) [Compound 131, N′-((3,5-dimethyl-1,2,3,5,6,7-hexahydrodicyclopenta[b,e]pyridin-8-yl)carbamoyl)-4-(2-hydroxypropan-2-yl)thiophene-2-sulfonimidamide]
- IC50 (Table B1, class symbols, read-out: Average IC50 of compounds in hTHP-1 assay: hTHP-1 IC50): 200 to 1000 nM

SMILES: CC1CCc2c1nc1c(c2NC(=O)N=S(N)(=O)c2cnn(C(C)C)c2)CCC1 (single isomer, unassigned) [Compound 171d, (S, S) and (S, R) or (R, S) and (R, R)-1-Isopropyl-N′-((3-methyl-1,2,3,5,6,7-hexahydrodicyclopenta [b,e]pyridin-8-yl)carbamoyl)-1H-pyrazole-4-sulfonimidamide]
- IC50 (Table B2, numeric bounds, read-out: hTHP-1 IC50): > 30000 nM

SMILES: CC1CCc2c1nc1c(c2NC(=O)N=S(N)(=O)c2cnn(C(C)C)c2)CCC1 (stereo not drawn) [Compound 171, 1-isopropyl-N′-((3-methyl-1,2,3,5,6,7-hexahydrodicyclopenta[b,e]pyridin-8-yl)carbamoyl)-1H-pyrazole-4-sulfonimidamide]
- IC50 [5]: 1000 to 5000 nM

SMILES: CCc1c(CC(F)(F)F)nc2c(c1NC(=O)N=S(N)(=O)c1sc(C(C)(C)O)cc1F)CCC2 (single isomer, unassigned) [Example 640, (S) or (R)-N′-((3-ethyl-2-(2,2,2-trifluoroethyl)-6,7-dihydro-5H-cyclopenta[b]pyridin-4-yl)carbamoyl)-3-fluoro-5-(2-hydroxypropan-2-yl) thiophene-2-sulfonimidamide]
- IC50 [4]: 5000 to 30000 nM

SMILES: CC(C)(O)c1csc(S(N)(=O)=NC(=O)Nc2cc(CC(F)(F)F)nc3c2CCC3)c1 (stereo not drawn) [Compound 607, 4-(2-Hydroxypropan-2-yl)-N′-((2-(2,2,2-trifluoroethyl)-6,7-dihydro-5H-cyclopenta[b]pyridin-4-yl)carbamoyl)thiophene-2-sulfonimidamide]
- IC50 [1]: 1000 to 5000 nM

SMILES: Cc1c(C(C)C)nc2c(c1NC(=O)N=S(N)(=O)c1cnc(C(C)(C)O)s1)CCC2 (stereo not drawn) [Compound 650, 2-(2-Hydroxypropan-2-yl)-N′-((2-isopropyl-3-methyl-6,7-dihydro-5H-cyclopenta[b]pyridin-4-yl)carbamoyl)thiazole-5-sulfonimidamide]
- IC50 [1]: 200 to 1000 nM

SMILES: CC(C)c1nc(C(F)(F)F)nc(C(C)C)c1NC(=O)N=S(N)(=O)c1sc(C(C)(C)O)nc1CO (stereo not drawn) [Compound 713]
- IC50 [1]: 1000 to 5000 nM

SMILES: CC(C)n1cc(F)c(S(N)(=O)=NC(=O)Nc2c3c(nc4c2CC[C@H]4C)CCC3)n1 (stereo partly drawn) [Example 739, 4-Fluoro-1-isopropyl-N′-(((R)-3-methyl-1,2,3,5,6,7-hexahydrodicyclopenta[b,e]pyridin-8-yl)carbamoyl)-1H-pyrazole-3-sulfonimidamide]
- IC50 (Homo sapiens, THP-1, Table B4, class symbols, read-out: hTHP-1 IC50): 8 to 40 nM

SMILES: COCc1nc(C(C)(C)O)sc1S(N)(=O)=NC(=O)Nc1c2c(nc3c1CCC3(C)C)CCC2 (stereo not drawn) [Compound 170, N′-((3,3-dimethyl-1,2,3,5,6,7-hexahydrodicyclopenta[b,e]pyridin-8-yl)carbamoyl)-2-(2-hydroxypropan-2-yl)-4-(methoxymethyl)thiazole-5-sulfonimidamide]
- IC50 [5]: 1000 to 5000 nM

SMILES: CCn1nc(S(N)(=O)=NC(=O)Nc2c(C)c(C(F)(F)F)nc3c2CCC3)cc1CO (stereo not drawn) [Example 588, 1-Ethyl-5-(hydroxymethyl)-N′-((3-methyl-2-(trifluoromethyl)-6,7-dihydro-5H-cyclopenta[b]pyridin-4-yl)calbamoyl)-1H-pyrazole-3-sulfonimidamide]
- IC50 [2]: 1000 to 5000 nM

SMILES: CC(C)c1cc(C#N)nc(C(C)C)c1NC(=O)NS(=N)(=O)c1sc(C(C)(C)O)nc1CO (stereo not drawn) [Compound 696, N-((6-cyano-2,4-diisopropylpyridin-3-yl)carbamoyl)-4-(hydroxymethyl)-2-(2-hydroxypropan-2-yl)thiazole-5-sulfonimidamide]
- IC50 [1]: 5000 to 30000 nM

SMILES: CC(C)c1ncc(F)c(C(C)C)c1NC(=O)N=S(N)(=O)c1ccc(CN(C)C)cc1 (single isomer, unassigned) [Compound 132a, (R) or (S)-4-((dimethyl-amino)methyl)-N′-((5-fluoro-2,4-diisopropylpyridin-3-yl)carbamoyl)benzene-sulfonimidamide]
- IC50 [5]: 5000 to 30000 nM

The remaining lines, values ahead:

- IC50 [1]: 40 to 200 nM
SMILES: CCc1csc(S(N)(=O)=NC(=O)Nc2c3c(nc4c2CC[C@H]4C)CCC3)c1 (stereo partly drawn) [Compound 721c, 4-Ethyl-N′-(((R)-3-methyl-1,2,3,5,6,7-hexahydrodicyclopenta [b,e]pyridin-8-yl)carbamoyl)thiophene-2-sulfonimidamide]

- IC50 [3]: 40 to 200 nM
SMILES: CCc1c(C2CC2)nc2c(c1NC(=O)N=S(N)(=O)c1cc(C(C)(C)O)cs1)CCC2 (single isomer, unassigned) [Compound 181b, (R) or (S)-N′((2-cyclopropyl-3-ethyl-6,7-dihydro-5H-cyclopenta[b]pyridin-4-yl)carbamoyl)-4-(2-hydroxypropan-2-yl)thiophene-2-sulfonimidamide]

- IC50 [3]: 5000 to 30000 nM
SMILES: C[C@@H]1CCc2c1nc1c(c2NC(=O)N=S(N)(=O)c2cc(F)c(C(C)(C)O)s2)CCC1 (single isomer, unassigned) [Compound 616b, (S) or (R)-4-Fluoro-5-(2-hydroxypropan-2-yl)-N′-(((R)-3-methyl-1,2,3,5,6,7-hexahydrodicyclopenta [b,e]pyridin-8-yl)carbamoyl) thiophene-2-sulfonimidamide]

- IC50 [1]: 5000 to 30000 nM
SMILES: CCn1ccc([S@@](N)(=O)=NC(=O)Nc2c3c(nc4c2CCC42CC2)CCC3)n1 [Compound 604a]

- IC50 [3]: 5000 to 30000 nM
SMILES: CCc1c(C(F)(F)F)nc2c(c1NC(=O)N=S(N)(=O)c1cnc(C(C)(C)O)s1)CCC2 (single isomer, unassigned) [Compound 610b, (S) or (R)-N′-((3-ethyl-2-(trifluoromethyl)-6,7-dihydro-5H-cyclopenta[b]pyridin-4-yl)carbamoyl)-2-(2-hydroxypropan-2-yl)thiazole-5-sulfonimidamide]

- IC50 [3]: 5000 to 30000 nM
SMILES: Cc1c(C2CC2)nc2c(c1NC(=O)N=S(N)(=O)c1cc(C(C)(C)O)n(-c3ccccc3)n1)CCC2 (single isomer, unassigned) [Compound 651a, (S) or (R)-N′-((2-cyclopropyl-3-methyl-6,7-dihydro-5H-cyclopenta[b]pyridin-4-yl)carbamoyl)-5-(2-hydroxypropan-2-yl)-1-phenyl-1H-pyrazole-3-sulfonimidamide]

- IC50 (Homo sapiens, THP-1, Table B2, numeric bounds, read-out: hTHP-1 IC50): > 30000 nM
SMILES: CC(C)(O)c1ccc(S(N)(=O)=NC(=O)Nc2c3c(nc4c2CCC4)CCC3)cc1 (single isomer, unassigned) [Compound 633a, (S) or (R)-N′-((1,2,3,5,6,7-hexahydrodicyclopenta [b,e]pyridin-8-yl)carbamoyl)-4-(2-hydroxypropan-2-yl)benzene-sulfonimidamide]
